{"source": "patent US20240269170A1", "about": "“Treatment of Inflammatory Conditions or Diseases” (Queen Mary University of London, priority 2021, published 2024)", "tested_on": "K/B×N serum induced arthritis in C57BL/6 mice", "assay": "Sustained K/B×N serum induced arthritis, transfer of monocytes from arthritic mice incubated with MCTR3", "type": "in vivo, mouse", "description": "(C-D) K/B×N serum (100 μL, i.p.) was administered to C57BL/6 mice on day 0, 2 and 9 to induce and prolong inflammatory arthritis and, on day 12, mice were treated i.v. with 2×10^6 monocytes isolated from arthritic mice and incubated with either vehicle (PBS+0.1% EtOH) or 1 nM MCTR3 for 90 min at 37° C. Disease course was monitored daily by assessing C) clinical scores and D) oedema. Results are mean±SEM. and expressed as percent change from day of treatment. n=9 per group from two distinct experiments. (E) On day 22 hind paws were harvested joints were fixed, sectioned, stained using H&E stain and leukocyte infiltration evaluated. Top and centre panels present representative images from each experimental group; bottom panel Quantitation of the scores in each of the group. Results are mean±SEM. n=8 mice per group. Statistical differences were evaluated using Mann-Whitney U test. IFP=intrapatellar fat, M=meniscus, TB=Tibia, PF=Pannus formation, arrows denote leukocyte infiltration. (F-G) Paws were harvested 10 days after treatment and lipid mediator profiles were determined using LC-MS/MS-based lipid mediator profiling and evaluated using PLS-DA. (F) scores plot with highlighted regions denoting the clusters representing cells from each group (G) VIP scores for top 15 mediators. Each dot in the score plot represents a separate mouse.\nFIG. 4: Regulation of joint reparative pathways in mice receiving MCTR3-trained monocytes. K/B×N serum (100 μL, i.p.) was administered to C57BL/6 mice on day 0, 2 and 9 to induce and prolong inflammatory arthritis and, on day 12, mice were treated i.v. with 2×10^6 monocytes isolated from arthritic mice and incubated with either vehicle (PBS+0.1% EtOH) or 1 nM MCTR3 for 90 min. (A-C) On day 22 hind paws were harvested, fixed, and stained to evaluate A) proteoglycan content using Safranin-O staining; B) Col 2 and C) Col X expression was evaluated using immunofluorescence. Left panels present representative images from each experimental group, right panels provide a quantitative evaluation of the staining. Results are expressed as percent change vs Monocyte group. n=7-8 mice per group. Statistical differences were evaluated using Wilcoxon signed rank test. (D-I) Hind paws were also collected on day 22 to evaluate the expression of the indicated genes was evaluated using quantitative realtime PCR. Results are from n=5 mice per group. Statistical differences were evaluated using Mann Whitney-U test.\nFIG. 5: MCTR3 reprograms the arthritic monocyte-derive macrophage transcriptome. A-B) Arthritis was induced and prolonged in C57BL/6 mice by administering 100 μL K/B×N serum i.p. on day 0, 2 and 9. Mice were treated on day 12 i.v. with 2×10^6 monocytes isolated from arthritic mice and incubated either with vehicle (PBS+0.1% DMSO) or 10 μM RG108, a DNMT inhibitor, for 15 min and then with a vehicle (PBS+0.1% EtOH) or 1 nM MCTR3 for 90 min (37° C.). Disease course was monitored daily by assessing A) clinical scores and B) oedema. Results are mean±SEM and expressed as percent change from day of treatment. n=10 mice per group. Statistical differences were evaluated using Two-way ANOVA. (C-E) K/B×N serum (100 μL, i.p.) was administered to mice on days 0, 2 and 9 to induce and prolong inflammatory arthritis. On day 12, mice were treated i.v. with 2×10^6 monocytes isolated from arthritic mice that were previously incubated with either vehicle (PBS+0.1% EtOH) or 1 nM MCTR3 for 90 min. Cells were isolated from paw joints on day 22, sorted for CD45^+ cells and single cell RNA sequencing was performed. […] Results are from n=4 mice per group. (F-G) Monocytes were isolated from human healthy volunteers, these cells were then incubated with GM-CSF (7 days, 37° C.) then with either Vehicle or MCTR3 (1 nM, 37° C.). Cells were lysed and the phosphoproteome determined using mass spectrometry. […]", "key": {"[1]": {"settings": "200 μg nor-NOHA i.p. daily for 10 days from day 12"}, "[2]": {"settings": "200 μg nor-NOHA i.p. daily, mice given MCTR3-reprogrammed monocytes"}}}
{"compound": "N=C(NO)NCC[C@H](N)C(=O)O", "note": "[nor-NOHA, N^ω-hydroxy-nor-L-arginine]", "values": [{"measurement": "clinical scores in mice given MCTR3-reprogrammed monocytes", "setting": "[1]", "result": "increase"}, {"measurement": "oedema in mice given MCTR3-reprogrammed monocytes", "setting": "[1]", "result": "increase"}, {"measurement": "upregulation of Dbl in PKH67+ CD64+ cells", "setting": "[2]", "result": "reversed"}, {"measurement": "upregulation of TGF-β1 in PKH67+ CD64+ cells", "setting": "[2]", "result": "reversed"}]}
